Measurements reported in patent publication US20250034105A1, “IS[…] N-METHYL-1,3-BENZODIOXOLYLBUTANAMINE (MBDB) AND STEREOISOMERS THEREOF” (Terran Biosciences Inc., priority 2021, published 2025).

Assay: Metabolic stability in human liver microsomes
Assay type: in vitro ADME
Details: for differences in half-life and intrinsic clearance compared to rac-MBDB HCl salt (reference compound) / differences in half-life and intrinsic clearance compared to R-MBDB HCl salt (reference compound) / differences in half-life and intrinsic clearance compared to S-MBDB HCl salt (reference compound): based on Table Ex7; for half-life at 0.25 μM / microsomal CLint at 0.25 μM: pH 7.4, NADPH; for half-life at 0.25 μM / microsomal CLint at 0.25 μM / CLint / t1/2: 37° C.; for CLint / t1/2: NADPH
Protocol: Microsomal Assay: Human liver microsomes (20 mg/mL) were obtained. β-nicotinamide adenine dinucleotide phosphate, reduced form (NADPH), magnesium chloride (MgCl2), and dimethyl sulfoxide (DMSO) were purchased from Sigma-Aldrich. Determination of Metabolic Stability: 7.5 mM stock solutions of test compounds of the above structural formula (e.g., of an embodiment or aspect of embodiment thereof described herein), or pharmaceutically acceptable salt thereof, are prepared in DMSO. […] The diluted microsomes were added to wells of a 96-well deep-well polypropylene plate in triplicate. […] Reactions were initiated by addition of pre-warmed NADPH solution. The final reaction volume is 0.5 mL and contains 4.0 mg/mL human liver microsomes, 0.25 μM test compound, and 2 mM NADPH in 0.1 M potassium phosphate buffer, pH 7.4, and 3 mM MgCl2. The reaction mixtures were incubated at 37° C., and 50 pL aliquots were removed at 0, 5, 10, 20, and 30 minutes and added to shallow-well 96-well plates which contain 50 pL of ice-cold ACN (acetonitrile) with internal standard to stop the reactions. The plates were stored at 4° C. for 20 minutes after which 100 pL of water was added to the wells of the plate before centrifugation to pellet precipitated proteins. Supernatants were transferred to another 96-well plate and analyzed for amounts of parent remaining by LC-MS/MS using an Applied Bio-systems API 4000 mass spectrometer. The same procedure was followed for the non-enriched counterpart of the compound and the positive control, 7-ethoxycoumarin (1 μM). Testing was done in triplicate.
Data analysis: The in vitro T1/2s for test compounds were calculated from the slopes of the linear regression of % parent remaining (In) vs incubation time relationship.
k=−[slope of linear regression of % parent remaining (In) vs incubation time] The apparent intrinsic clearance was calculated using the following equation: […]

SMILES	differences in half-life and intrinsic clearance compared to rac-MBDB HCl salt (reference compound)	half-life at 0.25 μM	microsomal CLint at 0.25 μM	CLint	t1/2	differences in half-life and intrinsic clearance compared to R-MBDB HCl salt (reference compound)	differences in half-life and intrinsic clearance compared to S-MBDB HCl salt (reference compound)
Cl.[2H]C([2H])([2H])NC(CC)Cc1ccc2c(c1)OCO2 (racemic) [Compound 2, 1-(1,3-Benzodioxol-5-yl)-N-(trideuteriomethyl)butan-2-amine hydrochloride]	demonstrates differences	1.87 h	12.4 µL/min/mg	–	–	–	–
Cl.[2H]C([2H])([2H])NC(CC)Cc1ccc2c(c1)OC([2H])([2H])O2 (racemic) [Compound 4, 1-(2,2-Dideuterio-1,3-benzodioxol-5-yl)-N-(trideuteriomethyl)butan-2-amine hydrochloride]	significant differences	0.7 h	33 µL/min/mg	–	–	–	–
Cl.[2H]C1([2H])Oc2ccc(CC(CC)NC)cc2O1 (racemic) [Compound 8, 1-(2,2-Dideuterio-1,3-benzodioxol-5-yl)-N-methyl-butan-2-amine hydrochloride]	significant differences	1.34 h	17.2 µL/min/mg	–	–	–	–
CCC(Cc1ccc2c(c1)OCO2)NC.Cl (racemic) [rac-MBDB HCl salt]	–	–	–	11.9 μL/min/mg protein	1.93 h	–	–
Cl.[2H]C([2H])([2H])N[C@H](CC)Cc1ccc2c(c1)OCO2 [Compound 1, (2R)-1-(1,3-Benzodioxol-5-yl)-N-(trideuteriomethyl)butan-2-amine hydrochloride]	–	1.61 h	14.3 µL/min/mg	–	–	significant differences	–
Cl.[2H]C([2H])([2H])N[C@@H](CC)Cc1ccc2c(c1)OCO2 [Compound 3, (2S)-1-(1,3-Benzodioxol-5-yl)-N-(trideuteriomethyl)butan-2-amine hydrochloride]	–	2.88 h	8.04 µL/min/mg	–	–	–	demonstrates differences
Cl.[2H]C([2H])([2H])N[C@H](CC)Cc1ccc2c(c1)OC([2H])([2H])O2 [Compound 5, (2R)-1-(2,2-Dideuterio-1,3-benzodioxol-5-yl)-N-(trideuteriomethyl)butan-2-amine hydrochloride]	–	0.405 h	57.1 µL/min/mg	–	–	significant differences	–
Cl.[2H]C([2H])([2H])N[C@@H](CC)Cc1ccc2c(c1)OC([2H])([2H])O2 [Compound 6, (2S)-1-(2,2-Dideuterio-1,3-benzodioxol-5-yl)-N-(trideuteriomethyl)butan-2-amine hydrochloride]	–	0.91 h	25.4 µL/min/mg	–	–	–	significant differences
Cl.[2H]C1([2H])Oc2ccc(C[C@@H](CC)NC)cc2O1 [Compound 7, (2R)-1-(2,2-Dideuterio-1,3-benzodioxol-5-yl)-N-methyl-butan-2-amine hydrochloride]	–	0.628 h	36.7 µL/min/mg	–	–	significant differences	–
Cl.[2H]C1([2H])Oc2ccc(C[C@H](CC)NC)cc2O1 [Compound 9, (2S)-1-(2,2-Dideuterio-1,3-benzodioxol-5-yl)-N-methyl-butan-2-amine hydrochloride]	–	0.867 h	26.7 µL/min/mg	–	–	–	significant differences
CC[C@H](Cc1ccc2c(c1)OCO2)NC.Cl [R-MBDB HCl salt]	–	–	–	11.7 μL/min/mg protein	1.98 h	–	–
CC[C@@H](Cc1ccc2c(c1)OCO2)NC.Cl [S-MBDB HCl salt]	–	–	–	8.06 μL/min/mg protein	2.87 h	–	–
COc1ccc2c(c1)[C@]13CCCC[C@@H]1[C@H](C2)N(C)CC3 [dextromethorphan]	–	–	–	53.4 μL/min/mg protein	–	–	–
